From the supplement of paper PMC10627819

Columns and labels:
[1] = tested on: S. aureus DSM 20231; test: Bliss interaction score (quartile over a dose matrix) (fitness difference); higher = more antagonism (negative = synergy)
Summary of the method: (§1)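 Fitness was OD595 at entry into stationary phase divided by the plate's robust no-drug mean and capped at 1; single-drug fitness was inferred from combination data. The Bliss score is observed minus expected (product) fitness, summarised by quartiles over technical, biological and donor/recipient replicates.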

[2] = tested on: S. aureus Newman; test: as above
Summary of the method: as §1

[3] = tested on: S. pneumoniae D39V; test: as above
Summary of the method: as §1

[4] = tested on: B. subtilis 168; test: as above
Summary of the method: as §1

[5] = tested on: S. aureus DSM 20231; test: fitness (endpoint OD595 vs no drug) (fraction); higher = more growth
Summary of the method: (§2)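 Fitness was measured as bacterial growth in 384-well plates inoculated at OD595 0.01 (30 µl, or 55 µl for S. pneumoniae). Media were TSB, LB Lennox or CY, at 37 °C. OD595 was read every 30 min for 14 h and background-subtracted against the first reading. Fitness is OD595 at the transition into stationary phase divided by the robust mean of no-drug control wells, capped at 1.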

[6] = tested on: S. aureus Newman; test: as above
Summary of the method: as §2

[7] = tested on: B. subtilis 168; test: as above
Summary of the method: as §2
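Throughout, for Bliss interaction score (quartile over a dose matrix): first quartile when negative (synergy) and third quartile when positive (antagonism).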

CC[C@H]1OC(=O)[C@H](C)[C@@H](O[C@H]2C[C@@](C)(OC)[C@@H](O)[C@H](C)O2)[C@H](C)[C@@H](O[C@@H]2O[C@H](C)C[C@H](N(C)C)[C@H]2O)[C@](C)(O)C[C@@H](C)CN(C)[C@H](C)[C@@H](O)[C@]1(C)O [Azithromycin] + O=C(O[C@@H]1Cc2c(O)cc(O)cc2O[C@@H]1c1cc(O)c(O)c(O)c1)c1cc(O)c(O)c(O)c1 [EGCG]
Settings	Bliss interaction score
[1]	-0.13
[2]	-0.0553
[3]	0.043
[4]	-0.0827

fitness
Settings	partner 6.25 µg/mL	partner 12.5 µg/mL	partner 25 µg/mL	partner 50 µg/mL
[5], first compound 0.125 µg/mL	–	0.703	0.693	0.614
[5], first compound 0.25 µg/mL	–	0.761	0.695	–
[6], first compound 0.125 µg/mL	–	0.759	0.706	0.696
[6], first compound 0.25 µg/mL	–	0.726	0.715	0.658
[6], first compound 0.5 µg/mL	–	0.545	0.522	0.484
[7], first compound 0.25 µg/mL	0.859	0.508	0.246	–
[7], first compound 0.5 µg/mL	0.912	0.461	–	–
[7], first compound 1 µg/mL	–	–	0.0462	–

[7], first compound 2 µg/mL, one replicate
Settings	fitness
partner 6.25 µg/mL	0.387
partner 12.5 µg/mL	0.229
partner 25 µg/mL	0.201

CC[C@H]1OC(=O)[C@H](C)[C@@H](O[C@H]2C[C@@](C)(OC)[C@@H](O)[C@H](C)O2)[C@H](C)[C@@H](O[C@@H]2O[C@H](C)C[C@H](N(C)C)[C@H]2O)[C@](C)(O)C[C@@H](C)CN(C)[C@H](C)[C@@H](O)[C@]1(C)O [Azithromycin] + COc1ccc(C[C@H](N)C(=O)N[C@H]2[C@@H](O)[C@H](n3cnc4c(N(C)C)ncnc43)O[C@@H]2CO)cc1 [Puromycin]
Settings	Bliss interaction score
[1]	-0.0839
[2]	-0.0828
[3]	-0.0719
[4]	-0.0345

fitness
Settings	partner 0.39 µg/mL	partner 0.78 µg/mL	partner 1.56 µg/mL
[5], first compound 0.125 µg/mL	0.849	0.863	0.923
[5], first compound 0.25 µg/mL	0.881	0.936	0.891
[6], first compound 0.125 µg/mL	0.915	0.905	0.945
[6], first compound 0.25 µg/mL	0.884	0.836	0.889
[6], first compound 0.5 µg/mL	0.559	–	0.524
[7], first compound 0.25 µg/mL	0.888	0.913	0.95
[7], first compound 0.5 µg/mL	0.828	0.815	0.82

fitness, [5], one replicate
Settings	first compound 0.125 µg/mL	first compound 0.25 µg/mL	first compound 0.5 µg/mL
partner 3.12 µg/mL	≥ 1	0.915	0.293
partner 6.24 µg/mL	0.615	0.237	0.0525

CC[C@H]1OC(=O)[C@H](C)[C@@H](O[C@H]2C[C@@](C)(OC)[C@@H](O)[C@H](C)O2)[C@H](C)[C@@H](O[C@@H]2O[C@H](C)C[C@H](N(C)C)[C@H]2O)[C@](C)(O)C[C@@H](C)CN(C)[C@H](C)[C@@H](O)[C@]1(C)O [Azithromycin] + CO/N=C(\C(=O)N[C@@H]1C(=O)N2C(C(=O)O)=C(COC(C)=O)CS[C@H]12)c1csc(N)n1 [Cefotaxime]
Settings	Bliss interaction score
[1]	0.0492
[2]	-0.0321
[3]	0.0552
[4]	-0.053

fitness, one replicate
Settings	first compound 0.125 µg/mL	first compound 0.25 µg/mL	first compound 0.5 µg/mL	first compound 1 µg/mL	first compound 2 µg/mL
[5], partner 0.039 µg/mL	0.725	0.724	0.589	–	–
[6], partner 0.039 µg/mL	0.792	0.896	0.786	–	–
[6], partner 0.312 µg/mL	0.269	0.241	0.0227	–	–
[7], partner 0.00775 µg/mL	–	–	0.831	0.567	0.0141
[7], partner 0.0155 µg/mL	–	–	0.714	0.324	0.0276
[7], partner 0.031 µg/mL	–	–	0.516	0.153	0.0097

fitness
Settings	first compound 0.125 µg/mL	first compound 0.25 µg/mL	first compound 0.5 µg/mL	first compound 1 µg/mL
[5], partner 0.078 µg/mL	0.744	0.768	0.554	–
[5], partner 0.156 µg/mL	0.672	0.762	0.511	–
[5], partner 0.312 µg/mL	0.6	0.668	0.487	–
[6], partner 0.078 µg/mL	0.722	0.754	0.549	–
[6], partner 0.156 µg/mL	0.587	0.588	–	–
[6], partner 0.625 µg/mL	–	–	0.0779	–
[6], partner 1.25 µg/mL	0.157	0.0373	0.0342	–
[6], partner 2.5 µg/mL	0.0341	0.0356	0.0427	–
[7], partner 0.0625 µg/mL	–	0.654	0.631	–
[7], partner 0.125 µg/mL	–	0.456	0.456	0.21
[7], partner 0.25 µg/mL	–	0.349	0.358	0.177
[7], partner 0.5 µg/mL	–	0.21	0.19	0.0636
[7], partner 1 µg/mL	–	0.141	0.103	0.0233
[7], partner 2 µg/mL	–	0.111	0.0792	0.037
